{"source": "the NIST ThermoML archive (doi:10.1021/acs.jced.9b00854)", "key": {"[1]": {"assay": "Molar enthalpy of transition or fusion", "conditions": "Crystal; DSC"}, "[2]": {"conditions": "Crystal"}}, "note": "Numbers after ± are expanded uncertainties.", "data": [{"molecule": "CCNC(=S)NCC", "note": "[N,N'-diethylthiourea]", "values": [{"measurement": "Molar enthalpy of transition or fusion", "setting": "[1]", "value": "3.75 ± 0.206", "unit": "kcal/mol"}, {"measurement": "mass density", "setting": "[2]; 293 K, 101.33 kPa, X-ray diffraction", "value": "1120 ± 5.8", "unit": "kg/m3"}, {"measurement": "Triple point temperature", "setting": "[2]; DSC", "value": "351.28 ± 0.87", "unit": "K"}]}]}
